Reference: patent US20110105623A1 (Biogenic Innovations, LLC, priority 2009, published 2011)
Where “and” joins values, the source holds several entries; their conditions need not be identical. Equal values may be shown once.

Experiments:
E. coli = assay: Log growth in MSM-lactose broth with or without DMSO; type: cell-based, Escherichia coli; conditions: 24 hours
Protocol: Lactose broth, free of both NaCl and of proteins, was used as the media in this experiment. […] Each media composition was initially inoculated with 6.75×10^6 cfu/mL of E. coli. Cultures were incubated at 25° C. for seven days. Aliquots of each culture were taken after 24 hours of culturing and at the end of seven days in culture. Aliquots were serially diluted (with Modified Letheen diluent) and plated on trypto-soy agar plates.

[1] = system: Lactobacillus acidophilus; assay: Recovery from Acidophilus milk fortified with MSM into broth without MSM; type: cell-based; conditions: for Recovery of Lactobacillus acidophilus in Milk fortified with MSM Day 14, initial start data: Day 14-0; for Lag Recovery of Lactobacillus acidophilus in Milk fortified with MSM Day 14 / Lag Recovery of Lactobacillus acidophilus in Milk fortified with MSM Day 21 / Lag Recovery of Lactobacillus acidophilus in Milk fortified with MSM Day 28 / Lag Recovery of Lactobacillus acidophilus in Milk fortified with MSM Day 7: duplicates; for Lag Recovery of Lactobacillus acidophilus in Milk fortified with MSM Day 21 / Lag Recovery of Lactobacillus acidophilus in Milk fortified with MSM Day 28: 0.50% MSM; for Lag Recovery of Lactobacillus acidophilus in Milk fortified with MSM Day 7: 5% MSM
Protocol: The Acidophilus milk was low fat (Darigold). […] All preparations and plating was conducted at room temperature.
The recovery study was run parallel to the study done on the affects of MSM on growth of Lactobacillus acidophilus in Acidophilus milk fortified with MSM. The recovery growth rate was analyzed on Day 7, Day 14, Day 21 and Day 28. For Table 27, the growth for Day x with no time is calculated from the initial growth study with the dilution factor into the log growth. […] Table 28 takes the value of 2.00 as the starting value.

Methylsulfonylmethane [MSM]
reduced bacterial growth (E. coli; 11% MSM): about 2.2 logs | reduced bacterial growth (E. coli; 16% MSM): about 1 log | Recovery of Lactobacillus acidophilus in Milk fortified with MSM Day 7, initial start data ([1]; 0.5% MSM): 8.68 logs | Recovery of Lactobacillus acidophilus in Milk fortified with MSM Day 7, average recovery ([1]; 0.5% MSM, Day 7-24): 12.94 logs | Recovery of Lactobacillus acidophilus in Milk fortified with MSM Day 7, average recovery ([1]; 0.5% MSM, Day 7-48): 12.69 logs | Recovery of Lactobacillus acidophilus in Milk fortified with MSM Day 7, average recovery ([1]; 0.5% MSM, Day 7-72): 13.07 logs | Recovery of Lactobacillus acidophilus in Milk fortified with MSM Day 14, initial start data ([1]; 0.5% MSM): 4.22 logs | Recovery of Lactobacillus acidophilus in Milk fortified with MSM Day 14, average recovery ([1]; 0.5% MSM, Day 14-24): 10.15 logs | Lag Recovery of Lactobacillus acidophilus in Milk fortified with MSM Day 14 ([1]; 0.5% MSM, Day 14-24): 10.19 logs and 10.10 logs | Recovery of Lactobacillus acidophilus in Milk fortified with MSM Day 14, average recovery ([1]; 0.5% MSM, Day 14-48): 12.84 logs | Lag Recovery of Lactobacillus acidophilus in Milk fortified with MSM Day 14 ([1]; 0.5% MSM, Day 14-48): 12.95 logs and 12.72 logs | Recovery of Lactobacillus acidophilus in Milk fortified with MSM Day 14, average recovery ([1]; 0.5% MSM, Day 14-72): 12.86 logs | Lag Recovery of Lactobacillus acidophilus in Milk fortified with MSM Day 14 ([1]; 0.5% MSM, Day 14-72): 13.02 logs and 12.70 logs | Recovery of Lactobacillus acidophilus in Milk fortified with MSM Day 21, initial start data ([1]; 0.5% MSM): 3.37 logs | Recovery of Lactobacillus acidophilus in Milk fortified with MSM Day 21, average recovery ([1]; 0.5% MSM, Day 21-24): 12.91 logs | Lag Recovery of Lactobacillus acidophilus in Milk fortified with MSM Day 21 ([1]; Day 21-24): 12.89 logs and 12.93 logs | Recovery of Lactobacillus acidophilus in Milk fortified with MSM Day 21, average recovery ([1]; 0.5% MSM, Day 21-48): 13.02 logs | Lag Recovery of Lactobacillus acidophilus in Milk fortified with MSM Day 21 ([1]; Day 21-48): 12.94 logs and 13.1 logs | Recovery of Lactobacillus acidophilus in Milk fortified with MSM Day 21, average recovery ([1]; 0.5% MSM, Day 21-72): 11.30 logs | Lag Recovery of Lactobacillus acidophilus in Milk fortified with MSM Day 21 ([1]; Day 21-72): 12.29 logs and 10.31 logs | Recovery of Lactobacillus acidophilus in Milk fortified with MSM Day 28, initial start data ([1]; 0.5% MSM): 1.00 logs | Recovery of Lactobacillus acidophilus in Milk fortified with MSM Day 28, average recovery ([1]; 0.5% MSM, Day 28-24): 6.29 logs | Lag Recovery of Lactobacillus acidophilus in Milk fortified with MSM Day 28 ([1]; Day 28-24): 6.11 logs and 6.47 logs | Recovery of Lactobacillus acidophilus in Milk fortified with MSM Day 28, average recovery ([1]; 0.5% MSM, Day 28-48): 13.33 logs | Lag Recovery of Lactobacillus acidophilus in Milk fortified with MSM Day 28 ([1]; Day 28-48): 13.66 logs and 12.99 logs | Recovery of Lactobacillus acidophilus in Milk fortified with MSM Day 28, average recovery ([1]; 0.5% MSM, Day 28-72): 13.00 logs | Lag Recovery of Lactobacillus acidophilus in Milk fortified with MSM Day 28 ([1]; Day 28-72): 12.99 logs and 13.01 logs | Day 7 log recovery growth rate increase from start time of zero ([1]; 0.5% MSM, Hour 0): 0.00 logs | Day 14 log recovery growth rate increase from start time of zero ([1]; 0.5% MSM, Hour 0): 0.00 logs | Day 21 log recovery growth rate increase from start time of zero ([1]; 0.5% MSM, Hour 0): 0.00 logs | Day 7 log recovery growth rate increase from start time of zero ([1]; 0.5% MSM, Hour 24): 4.26 logs | Day 14 log recovery growth rate increase from start time of zero ([1]; 0.5% MSM, Hour 24): 5.93 logs | Day 21 log recovery growth rate increase from start time of zero ([1]; 0.5% MSM, Hour 24): 9.54 logs | Day 7 log recovery growth rate increase from start time of zero ([1]; 0.5% MSM, Hour 48): −0.26 logs | Day 14 log recovery growth rate increase from start time of zero ([1]; 0.5% MSM, Hour 48): 2.69 logs | Day 21 log recovery growth rate increase from start time of zero ([1]; 0.5% MSM, Hour 48): 0.11 logs | Day 7 log recovery growth rate increase from start time of zero ([1]; 0.5% MSM, Hour 72): 0.39 logs | Day 14 log recovery growth rate increase from start time of zero ([1]; 0.5% MSM, Hour 72): 0.03 logs | Day 21 log recovery growth rate increase from start time of zero ([1]; 0.5% MSM, Hour 72): −1.72 logs | Day 28 log recovery growth rate increase from start time of zero ([1]; 0.5% MSM, Time 0): 0.00 logs | Day 28 log recovery growth rate increase from start time of zero ([1]; 0.5% MSM, Time 24): 5.29 logs | Day 28 log recovery growth rate increase from start time of zero ([1]; 0.5% MSM, Time 48): 7.04 logs | Day 28 log recovery growth rate increase from start time of zero ([1]; 0.5% MSM, Time 72): −0.32 logs | Recovery of Lactobacillus acidophilus in Milk fortified with MSM Day 7, initial start data ([1]; 5.0% MSM): 8.71 logs | Recovery of Lactobacillus acidophilus in Milk fortified with MSM Day 7, average recovery ([1]; 5.0% MSM, Day 7-24): 12.71 logs | Lag Recovery of Lactobacillus acidophilus in Milk fortified with MSM Day 7 ([1]; Day 7-24): 12.12 logs and 13.29 logs | Recovery of Lactobacillus acidophilus in Milk fortified with MSM Day 7, average recovery ([1]; 5.0% MSM, Day 7-48): 13.17 logs | Lag Recovery of Lactobacillus acidophilus in Milk fortified with MSM Day 7 ([1]; Day 7-48): 13.09 logs and 13.25 logs | Recovery of Lactobacillus acidophilus in Milk fortified with MSM Day 7, average recovery ([1]; 5.0% MSM, Day 7-72): 12.99 logs | Lag Recovery of Lactobacillus acidophilus in Milk fortified with MSM Day 7 ([1]; Day 7-72): 13.1 logs and 12.87 logs | recovery log growth lower than the control ([1]; 5.0% MSM, Day 14, first 24 hours): 1.02 logs | Recovery of Lactobacillus acidophilus in Milk fortified with MSM Day 14, initial start data ([1]; 5.0% MSM): 6.04 logs | Recovery of Lactobacillus acidophilus in Milk fortified with MSM Day 14, average recovery ([1]; 5.0% MSM, Day 14-24): 9.60 logs | Lag Recovery of Lactobacillus acidophilus in Milk fortified with MSM Day 14 ([1]; 5.0% MSM, Day 14-24): 9.6 logs | Recovery of Lactobacillus acidophilus in Milk fortified with MSM Day 14, average recovery ([1]; 5.0% MSM, Day 14-48): 13.02 logs | Lag Recovery of Lactobacillus acidophilus in Milk fortified with MSM Day 14 ([1]; 5.0% MSM, Day 14-48): 12.99 logs and 13.04 logs | Recovery of Lactobacillus acidophilus in Milk fortified with MSM Day 14, average recovery ([1]; 5.0% MSM, Day 14-72): 12.43 logs | Lag Recovery of Lactobacillus acidophilus in Milk fortified with MSM Day 14 ([1]; 5.0% MSM, Day 14-72): 12.65 logs and 12.21 logs | Recovery of Lactobacillus acidophilus in Milk fortified with MSM Day 21, initial start data ([1]; 5.0% MSM): 3.56 logs | Recovery of Lactobacillus acidophilus in Milk fortified with MSM Day 21, average recovery ([1]; 5.0% MSM, Day 21-24): 9.69 logs | Recovery of Lactobacillus acidophilus in Milk fortified with MSM Day 21, average recovery ([1]; 5.0% MSM, Day 21-48): 13.08 logs | Recovery of Lactobacillus acidophilus in Milk fortified with MSM Day 21, average recovery ([1]; 5.0% MSM, Day 21-72): 13.15 logs | Recovery of Lactobacillus acidophilus in Milk fortified with MSM Day 28, initial start data ([1]; 5.0% MSM): 0.52 logs
